Reference: patent US20100004275A1, “AGENT FOR SUPPRESSING DEVELOPMENT OF TOLERANCE TO NARCOTIC ANALGESICS” (KYOTO UNIVERSITY, priority 2004, published 2010)

How the values were obtained:
[1] = test system: V1a receptor knockout mice, V1b receptor knockout mice, and control mice; test: Tail-flick test, development of tolerance to morphine in V1a/V1b receptor knockout and control mice (Example 1); type: in vivo; settings: 10 mg/kg s.c. once a day for 15 days, FIG. 1
Description: V1a receptor knockout mice (Neuroscience Letters, 356, pp. 195-198, 2004), V1b receptor knockout mice (J. Clin. Invest., 113, pp. 302-309, 2004), and control mice (body weight: about 30 g) were subcutaneously (s.c.) given with 10 mg/kg of morphine hydrochloride once a day, which was repeated for 15 days. The analgesic effect was evaluated by the tail-flick test on 1st, 5th, 9th, 12th and 15th days after the administration on the basis of the maximal possible effect (% MPE), which represents analgesic intensity and is calculated in accordance with the following equation.
(§1) % MPE=100×[(Measured value after treatment−Measured value before treatment)[…](Cut-off value−Measured value before treatment)]

[2] = test system: ddY mice; test: Tail-flick test, tolerance to morphine analgesic induced by repeated morphine, with V1 receptor antagonist i.c.v. (Example 2); type: in vivo; settings: male ddY mice; antagonist 0.5, 5 or 10 ng i.c.v. + morphine hydrochloride 10 mg/kg s.c. twice a day for 5 days; 1st, 3rd and 5th days; FIGS. 2 to 4
Description: as §1
Male ddY mice (5- or 6-week old) were intracerebroventricularly (i.c.v.) given with 5 μl of physiological saline or a V1 receptor antagonist (0.5, 5 or 10 ng), and immediately after the administration, the mice were subcutaneously given with 10 mg/kg of morphine hydrochloride, which was repeated twice a day for 5 days to induce tolerance to morphine analgesic. The analgesic effect was evaluated by the tail-flick test on 1st, 3rd and 5th days after the administration on the basis of intensity of analgesic effect using % MPE and AUC (area under the time-reaction curve, Area Under the Curve). As the V1 receptor antagonist, the following three types of antagonists were used.

## CN1CC[C@]23c4c5ccc(O)c4O[C@H]2[C@@H](O)C=C[C@H]3[C@H]1C5.Cl [morphine, morphine hydrochloride]
[1]; V1a receptor knockout mice
  development of tolerance to analgesic effect (% MPE): tolerance to morphine was developed
[1]; V1b receptor knockout mice
  development of tolerance to analgesic effect (% MPE): remarkable resistance against tolerance to morphine was observed
[1]; control mice
  development of tolerance to analgesic effect (% MPE): tolerance to morphine was developed

## [phenylacetyl, O-Me-D-Try, Arg, Lys]-vasopressin amide [PhAcALVP]
[2]
  effect on development of tolerance to morphine (% MPE and AUC): had no effect on the tolerance development

## [β-mercapto-β,β-cyclopentamethylenepropionyl, O-Me-Tyr, Arg]-vasopressin [d(CH2)5Tyr(Me)AVP]
[2]
  effect on development of tolerance to morphine (% MPE and AUC): had no effect on the tolerance development

## deamino-Pen, O-Me-Tyr, Arg]-vasopressin [dPenTyr(Me)AVP]
[2]
  effect on development of tolerance to morphine (% MPE and AUC): suppressed the development of tolerance
